Reference: ChEMBL document CHEMBL1126716, “Synthesis and evaluation of the antitumor activity of 4,5-diamino-substituted 1,2-benzoquinones” (J Med Chem, 1993)

Legend:
Mus musculus [1] = experiment: Survival days at a dose of 2.50 mg/kg after ip administration on days 1-5; assay type: functional; conditions: dose 2.5 mg/kg; route intraperitoneal
Mus musculus [2] = experiment: Increase in life span of animals bearing L1210 leukemia after ip administration at a dose of 2.50 mg/kg; Toxic; assay type: functional, organism-based; parameters: dose 2.5 mg/kg
Mus musculus [3] = experiment: Increase in life span of animals bearing L1210 leukemia after ip administration at a dose of 1.00 mg/kg; assay type: functional; conditions: route intraperitoneal
EMT6 [4] = experiment: Tested for 50% inhibition against EMT-6 murine mammary carcinoma cell under hypoxia condition; assay type: functional, cell-based; conditions: Mus musculus
Mus musculus [5] = experiment: Survival days at a dose of 0.50 mg/kg after ip administration on days 1-5; assay type: functional; conditions: dose 0.5 mg/kg; route intraperitoneal
Mus musculus [6] = experiment: Survival days at a dose of 1.50 mg/kg after ip administration on days 1-5; assay type: functional; conditions: dose 1.5 mg/kg; route intraperitoneal
Mus musculus [7] = experiment: Increase in life span of animals bearing L1210 leukemia after ip administration at a dose of 1.50 mg/kg; assay type: functional; conditions: route intraperitoneal
Mus musculus [8] = experiment: Survival days at a dose of 1.25 mg/kg after ip administration on days 1-5; assay type: functional; conditions: route intraperitoneal
Mus musculus [9] = experiment: Survival days at a dose of 1.00 mg/kg after ip administration on days 1-5; assay type: functional; conditions: route intraperitoneal
Mus musculus [10] = experiment: Increase in life span of animals bearing L1210 leukemia after ip administration at a dose of 1.25 mg/kg; assay type: functional; conditions: route intraperitoneal
Mus musculus [11] = experiment: Increase in life span of animals bearing L1210 leukemia after ip administration at a dose of 0.50 mg/kg; assay type: functional; conditions: route intraperitoneal
Mus musculus [12] = experiment: Increase in life span of animals bearing L1210 leukemia after ip administration at a dose of 2.00 mg/kg; assay type: functional; conditions: route intraperitoneal
EMT6 [13] = experiment: Tested for 50% inhibition against EMT-6 murine mammary carcinoma cell under normal oxygenated condition; assay type: functional, cell-based; conditions: Mus musculus
EMT6 [14] = experiment: Tested for 90% inhibition against EMT-6 murine mammary carcinoma cell under hypoxia condition; assay type: functional; conditions: Mus musculus
Mus musculus [15] = experiment: Survival days at a dose of 2.00 mg/kg after ip administration on days 1-5; assay type: functional; conditions: route intraperitoneal
EMT6 [16] = experiment: Tested for 90% inhibition against EMT-6 murine mammary carcinoma cell under normal oxygenated condition; assay type: functional; conditions: Mus musculus

Row | SMILES | IC50 (EMT6 [4]) | IC50 (EMT6 [13]) | IC90 (EMT6 [14]) | IC90 (EMT6 [16]) | further results
1 | O=C1C=C(N2CC2)C(N2CC2)=CC1=O | 0.2 µM | 0.4 µM | 1 µM | 1.1 µM | Survival days (Mus musculus [1]): 6; ILS (Mus musculus [2]): Toxic; ILS at 1 mg/kg (Mus musculus [3]): 81%; Survival days (Mus musculus [5]): 12.6; Survival days (Mus musculus [6]): 13.8; ILS at 1.5 mg/kg (Mus musculus [7]): 86%; Survival days (Mus musculus [8]): 13.6; Survival days (Mus musculus [9]): 13.4; ILS at 1.25 mg/kg (Mus musculus [10]): 84%; ILS at 0.5 mg/kg (Mus musculus [11]): 70%; ILS at 2 mg/kg (Mus musculus [12]): 59%; Survival days (Mus musculus [15]): 11.8
2 | CCN(CC)C1=CC(=O)C(=O)C=C1N(CC)CC | 400 µM | 500 µM | > 500 µM | > 500 µM | 
3 | O=C1C=C(N2CCCC2)C(N2CCCC2)=CC1=O | > 500 µM | > 500 µM | > 500 µM | > 500 µM | 
4 | COC1=CC(=O)C(=O)C=C1OC | > 500 µM | 500 µM | > 500 µM | > 500 µM | 
5 | O=C1C=C(N2CCC2)C(N2CCC2)=CC1=O | 400 µM | 500 µM | > 500 µM | > 500 µM | 
6 | COC1=CC(=O)C(O)=C/C1=N\CCCl | 110 µM | 125 µM | 190 µM | 455 µM | 
7 | CCOC(=O)NC1=C(N2CC2)C(=O)C(NC(=O)OCC)=C(N2CC2)C1=O [DIAZIQUONE] | 7.5 µM | 5 µM |  |  | 
